Assays:
tissue PDH activity = test: Ex vivo PDH activation assay (liver and epididymal adipose tissue after oral administration); format: in vivo, Sprague-Dawley rats; conditions: 3 mg/kg, rat, mean ± standard deviation
Procedure: The action of test compound on tissue PDH activity was evaluated. NADH production was detected via p-iodonitrotetrazolium violet (INT)-coupled system to measure PDH activity.
Normal male Sprague-Dawley rats were randomly allocated to the vehicle group and the test compound groups. The vehicle (0.5% aqueous methylcellulose solution, 5 mL/kg) or the test compound was orally administered to the rats. At 5 or 20 hr after administration, the rats were anesthetized with an intraperitoneal injection of sodium pentobarbital (60 mg/kg), and liver slices and epididymal adipose tissues were collected.
(§1) To the liver slices were rapidly added 9 volumes of ice-cold homogenization buffer (0.25 mol/L sucrose, 5 mmol/L tris(hydroxymethyl)aminomethane hydrochloride (pH 7.5), 2 mmol/L EDTA), and the mixtures were homogenized using a Polytron homogenizer. The homogenates were centrifuged at 600×g, 4° C. for 10 min to obtain the supernatant. The supernatants (1 mL) were centrifuged at 16,000×g, 4° C. for 10 min to collect the precipitates. The precipitates were washed by resuspension in the homogenization buffer (1 mL) and centrifuged in the same manner. The precipitates were frozen with liquid nitrogen and stored at −80° C. as the liver mitochondrial fraction.
as §1, with “adipose tissues” for “liver slices”, “3” for “9”, “of an” for “of”, “buffer,” for “buffer (0.25 mol/L sucrose, 5 mmol/L tris(hydroxymethyl)aminomethane hydrochloride (pH 7.5), 2 mmol/L EDTA),”, “supernatants” for “supernatants (1 mL)”, “adipose tissue” for “liver”
The mitochondrial fractions were thawed and suspended with the sample buffer (0.25 mol/L sucrose, 20 mmol/L tris(hydroxymethyl)aminomethane hydrochloride (pH 7.5), 50 mmol/L potassium chloride, and 1 mL/L 4-(1,1,3,3-tetramethylbutyl)phenyl-polyethylene glycol (Triton X-100)). Active PDH activity (PDHa activity) and total PDH activity (PDHt activity) were measured to evaluate the PDH activity. For the measurement of the PDHt activity, equal amounts of the mitochondrial suspension and the activation buffer (0.25 mol/L sucrose, 20 mmol/L tris(hydroxymethyl)aminomethane hydrochloride (pH 7.5), 50 mmol/L potassium chloride, 1 mL/L Triton X-100, 4 mmol/L calcium chloride, 40 mmol/L magnesium chloride, 10 mmol/L sodium dichloroacetate) were mixed, and the mixtures were incubated at 37° C. for 10 min. Forty microliters of the mitochondrial suspensions diluted with a sample buffer were added to a 96-well microplate for activity measurement and blank measurement. Then 180 μL of the reaction mixture (0.056 mmol/L potassium phosphate buffer (pH 7.5), 5.6 mmol/L DL-carnitine, 2.8 mmol/L NAD, 0.22 mmol/L thiamin pyrophosphate, 0.11 mmol/L Coenzyme A, 1.1 mL/L Triton X-100, 1.1 mmol/L magnesium chloride, 1.1 g/L bovine serum albumin, 0.67 mmol/L INT, 7.2 μmol/L phenazine methosulfate, 28 mmol/L sodium oxamate) was added to each well, and then 20 μL of 50 mmol/L sodium pyruvate for activity measurement or water for blank measurement were added. The mixtures were incubated at room temperature under shading. The absorbances at 500-750 nm, which were attributable to reduction of INT, the final electron acceptor, were measured using a microplate reader over time and the changes in the absorbance were calculated. The PDH activity was calculated by subtraction of the change in absorbance of the blank well from that of the activity measurement well. The percentage of the PDHa activity to the PDHt activity was calculated and taken as an index of the PDH activation.

[1] = Metabolic stability test in liver microsome (rat); format: in vitro ADME
[2] = Metabolic stability test in liver microsome (human); format: in vitro ADME; conditions: 5 μM test compound
Procedure: Human liver microsome (manufactured by Xenotech, H0620, final concentration (after dilution), 0.2 mg protein/mL) was suspended in 100 mM potassium phosphate buffer (pH 7.4, containing β-nicotinamide adenine dinucleotide phosphate: 1.3 mM, D-glucose-6-phosphate: 3.3 mM, magnesium chloride: 3.3 mM, glucose-6-phosphate dehydrogenase: 0.45 U/mL), and further mixed with a test compound dissolved in MeCN/DMSO (95/5) (final concentration 5 μM). The mixture was incubated at 37° C. for 10 min and 60 min, acetonitrile containing formic acid (final concentration 0.1%) was added, and the mixture was centrifuged. The test compound (unmodified) in the supernatant was measured by high performance liquid chromatography/mass spectrometry (LC/MS) (manufactured by Waters, LC: Acquity UPLC, MS:SQ Detector or TQ Detector). The residual ratio (%) was calculated from the obtained measurement value.

human PDHK2 (hPDHK2) = target: T1, human PDHK2 (hPDHK2) (Homo sapiens, UniProt Q15119); test: Inhibitory action of PDHK2 activity in vitro (residual PDH activity after kinase reaction); format: biochemical
T1 construct: made in house; host or cells: Escherichia coli BL21(DE3), pET17b
Procedure: The inhibitory action of PDHK activity was assessed indirectly by measuring the residual PDH activity after kinase reaction in the presence of a test compound.
In the case of human PDHK2 (hPDHK2, Genbank Accession No. BC040478.1), modified hPDHK2 cDNA wherein FLAG-Tag sequence was added to the N terminus of hPDHK2 cDNA clone (pReceiver-M01/PDK2-GeneCopoeia) was prepared by PCR and cloned into a vector (pET17b-Novagen). The recombinant construct was transformed into Escherichia coli (DH5α-TOYOBO). The recombinant clones were identified, and plasmid DNA was isolated and subjected to the DNA sequence analysis. One clone which had the expected nucleic acid sequence was selected for expression work.
For expression of hPDHK2 activity, Escherichia coli strain BL21(DE3) cells (Novagen) were transformed with the pET17b vector containing modified hPDHK2 cDNA. The Escherichia coli were grown to an optical density 0.6 ([…]) at 30° C. Protein expression was induced by the addition of 500 μmol/L isopropyl-β-thiogalactopyranoside. The Escherichia coli were cultured at 30° C. for 5 hr and harvested by centrifugation. Resuspension of the Escherichia coli paste was disrupted by a microfluidizer. FLAG-Tagged protein was purified using FLAG affinity gel. The gel was washed with 20 mmol/L HEPES-NaOH, 500 mmol/L sodium chloride, 1% ethylene glycol, and 0.1% Pluronic F-68 (pH 8.0), and the binding protein was eluted with 20 mmol/L HEPES-NaOH, 100 μg/mL FLAG peptide, 500 mmol/L sodium chloride, 1% ethylene glycol, and 0.1% Pluronic F-68 (pH 8.0). The eluted fractions containing FLAG-Tagged protein were pooled, dialyzed against 20 mmol/L HEPES-NaOH, 150 mmol/L sodium chloride, 0.5 mmol/L EDTA, 1% ethylene glycol, and 0.1% Pluronic F-68 (pH 8.0), and preserved at −80° C.
0.05 U/mL PDH and 0.8 μg/mL hPDHK2 were mixed in a buffer (50 mmol/L 3-morpholinopropanesulfonic acid (pH 7.0), 20 mmol/L dipotassium hydrogen phosphate, 60 mmol/L potassium chloride, 2 mmol/L magnesium chloride, 0.4 mmol/L EDTA, and 0.2% Pluronic F-68, 2 mmol/L dithiothreitol), and the mixture was incubated at 4° C. overnight to obtain a PDH/hPDHK2 complex. The test compounds were diluted with DMSO. […] DMSO (1.5 μL) was added to control wells instead of the test compound. […] The mixture was incubated at room temperature for 90 min, and the residual PDH activity was measured. The absorbance at 340 nm before and after PDH reaction was measured using a microplate reader to detect NADH produced by the PDH reaction. The hPDHK2 inhibition rate (%) of the test compound was calculated from the formula [{(PDH activity of test compound−PDH activity of control)/PDH activity of blank−PDH activity of control)}×100].

SMILES: CC(C)(O)CCOc1cc(-c2cnn(CC(C)(C)O)c2)c2c(c1)[C@@](O)(C(F)(F)F)c1ccccc1-2 [compound (3), (9R)-2-(3-hydroxy-3-methylbutoxy)-4-[1-(2-hydroxy-2-methylpropyl)-1H-pyrazol-4-yl]-9-(trifluoromethyl)-9H-fluoren-9-ol]
- PDHa activity (% PDHt activity) (tissue PDH activity; adipose tissue, 5 hr after oral administration): 58 ± 7 % PDHt activity
- PDHa activity (% PDHt activity) (tissue PDH activity; adipose tissue, 20 hr after oral administration): 40 ± 3 % PDHt activity
- PDHa activity (% PDHt activity) (tissue PDH activity; liver, 5 hr after oral administration): 51 ± 13 % PDHt activity
- PDHa activity (% PDHt activity) (tissue PDH activity; liver, 20 hr after oral administration): 31 ± 12 % PDHt activity
- stability in liver microsome (residual ratio %) ([1]; 10 min): 98.2%
- stability in liver microsome (residual ratio %) ([1]; 60 min): 99.7%
- stability in liver microsome (residual ratio %) ([2]; 10 min): 96.0%
- stability in liver microsome (residual ratio %) ([2]; 60 min): 85.3%
- IC50 (human PDHK2 (hPDHK2)): 4.6 nM

— patent US20150025120A1, “PYRAZOLE-ALCOHOL COMPOUNDS AND PHARMACEUTICAL USE THEREOF” (JAPAN TOBACCO INC., priority 2013, published 2015)
